# Read-outs that look alike come from different tables or passages of the source.
# What was measured:
# 5-HT1B receptor = target: T1, 5-HT1B receptor (Macaca mulatta, UniProt F6SFA9); assay: Example 1 PET monkey study: change in [11C]AZ10419369-5-HT1B receptor binding potential (BPND); type: in vivo, rhesus monkeys; conditions: rhesus monkey, iv, Citalopram 0.3 mg/kg IV, mean±standard error, n=3, read-out: ΔBPND (% of baseline)
# T1 construct: assess changes in the endogenous serotonin concentration in living rhesus monkeys; from tissue; host or cells: brain of living rhesus monkeys (PET)
# T1 sequence (F6SFA9 1-390): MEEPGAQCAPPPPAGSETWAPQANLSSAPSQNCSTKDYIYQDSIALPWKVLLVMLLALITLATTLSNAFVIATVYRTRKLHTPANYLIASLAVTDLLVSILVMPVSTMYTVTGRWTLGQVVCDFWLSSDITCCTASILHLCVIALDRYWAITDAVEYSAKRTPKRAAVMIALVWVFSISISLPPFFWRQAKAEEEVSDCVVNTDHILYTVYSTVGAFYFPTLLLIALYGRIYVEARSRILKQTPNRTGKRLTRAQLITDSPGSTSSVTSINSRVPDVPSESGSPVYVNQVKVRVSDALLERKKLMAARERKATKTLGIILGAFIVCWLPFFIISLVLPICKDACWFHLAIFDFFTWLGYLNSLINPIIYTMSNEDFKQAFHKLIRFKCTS
# From the text: Positron Emission Tomography (PET) was used to assess changes in the endogenous serotonin concentration in living rhesus monkeys. The objective of the present study was two-fold. […] The chemical name for [^11C]MADAM is [^11C] N,N-dimethyl-2-(2-amino-4-methylphenylthio)benzylamine.
# FIG. 1 illustrates the study design used for assessment of serotonin releasing capacities. A similar study design was applied for assessment of SERT occupancy.
# [1] = Example 3 clinical trial: vortioxetine plasma levels and simulated AUC0-24; type: in vivo; conditions: human; for concentration at 2 h: Day 0, 2 hours; for concentration at 8 h: Day 0, 8 hours; for concentration at 24 h: Day 0, 24 hours; for concentration at 14 day: Day 14; for AUC(0-t): popPK simulation based on observed data
# Protocol: (§1) Patients randomised to the vortioxetine IV dose regimen, received a single double-blind IV dose of 17 mg vortioxetine, infused over 2 hours, on Day 0 (baseline). Patients randomised to the vortioxetine oral dose regimen received a single double-blind IV dose of placebo (saline), infused over 2 hours, on Day 0. From Day 0 to Day 14, all patients in both treatment groups also received open labelled 10 mg/day vortioxetine by oral administration (tablets).
# The popPK model from example 2 was used to simulate vortioxetine plasma levels based on the observed data from Table 5. […] That is, the steady-state plasma level of vortioxetine achieved from the combined IV and oral vortioxetine administration the within 24 hours from the first dosing is essentially the same as the steady-state vortioxetine plasma level achieved at day 14 following the administration of once-daily oral vortioxetine alone in that period.
# [2] = test system: patients with recurrent major depressive disorder; assay: Example 3 clinical trial: MADRS and CGI-I efficacy; type: in vivo, human; conditions: for Change in 5-item MADRS score, Difference / Change in MADRS total score, Difference: VOR IV + VOR oral versus PBO IV + VOR oral;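 as to Change in 5-item MADRS score, Difference: apparent sadness Reported sadness Inner tension Pessimistic thoughts Suicidal thoughts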;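 as to Change in 5-item MADRS score, Mean: apparent sadness Reported sadness Inner tension Pessimistic thoughts Suicidal thoughts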
# Protocol: In particular, a total of 55 patients (27 and 28 in each treatment group) were recruited to an interventional, prospective, multi-national, multi-site, randomised, double-blind, parallel-group, fixed-dose study.
# The study consisted of a Screening Period—2 to 14-day period from screening to randomisation, a Treatment Period—15-day double-blind treatment period with one initial IV administration of 17 mg vortioxetine or saline and daily oral treatment with vortioxetine 10 mg and a Safety Follow-up Period—4-week period after end of treatment or after withdrawal from the study.
# At the Baseline Visit, patients were equally randomised (1:1) to either of the following two dose regimens: vortioxetine 17 mg single dose (IV) and vortioxetine 10 mg/day (tablet) or placebo single dose (IV) and vortioxetine 10 mg/day (tablet).
# as §1
# Following the IV infusion, patients stayed hospitalised for approximately 24 hours for close observation. After the hospitalisation period, patients continued the study on an outpatient basis.
# Efficacy and safety data were collected at Days 0, 1, 3, 7, and 14, including MADRS and clinical global impression […].
# The full MADRS scale may not be a suitable tool for gauging the early onset of anti-depressant effect of a drug because some of the ten items addressed in the MADRS test may require longer assessment time to validly assess a given symptom. For example, the MADRS item “Concentration Difficulties” requires that the patient has been exposed to a situation during the treatment where a change in the ability to concentrate could be identified in order for that item to truly reflect a treatment effect.
# [3] = other: intravenous infusion plus oral tablets, VOR IV + VOR oral
# [4] = VOR IV (17 mg day 0) + VOR oral (10 mg/day), Day 1, N 27
# [5] = VOR IV (17 mg day 0) + VOR oral (10 mg/day), Day 3, N 27
# [6] = VOR IV (17 mg day 0) + VOR oral (10 mg/day), Day 7, N 27
# [7] = PBO IV + VOR oral (10 mg/day), Day 1, N 28
# [8] = PBO IV + VOR oral (10 mg/day), Day 3, N 28
# [9] = PBO IV + VOR oral (10 mg/day), Day 7, N 28
structure (smiles),measurement,setting,value
CN(C)CCCC1(c2ccc(F)cc2)OCc2cc(C#N)ccc21 (centres unmarked) [Citalopram],change in vivo at 0.3 mg/kg,5-HT1B receptor; Amygdala,4.6 ± 11.6%
same,change in vivo at 0.3 mg/kg,5-HT1B receptor; Caudate nucleus,7.1 ± 7.5%
same,change in vivo at 0.3 mg/kg,5-HT1B receptor; Dorsal raphe nucleus,-21.2 ± 5.7%
same,change in vivo at 0.3 mg/kg,5-HT1B receptor; Frontal gyrus,12.4 ± 9.3%
same,change in vivo at 0.3 mg/kg,5-HT1B receptor; Globus pallidus,-1.6 ± 9.6%
same,change in vivo at 0.3 mg/kg,5-HT1B receptor; Hippocampus,5.4 ± 12.5%
same,change in vivo at 0.3 mg/kg,5-HT1B receptor; Midbrain,2.7 ± 5.3%
same,change in vivo at 0.3 mg/kg,5-HT1B receptor; Occipital gyrup,15.7 ± 11.1%
same,change in vivo at 0.3 mg/kg,5-HT1B receptor; Putamen,7.3 ± 12%
same,change in vivo at 0.3 mg/kg,5-HT1B receptor; Thalamus,0.3 ± 5.6%
same,change in vivo at 0.3 mg/kg,5-HT1B receptor; Ventral striatum,3.1 ± 10.8%
Cc1ccc(Sc2ccccc2N2CCNCC2)c(C)c1 [VOR IV + VOR oral],concentration at 2 h,[1]; [3],11.1 ± 9.3 ng/mL
same,concentration at 8 h,[1]; [3],11 ± 2.9 ng/mL
same,concentration at 24 h,[1]; [3],8.6 ± 2.6 ng/mL
same,concentration at 14 day,[1]; [3],10.8 ± 7 ng/mL
same,AUC(0-t),"[1]; other: intravenous infusion plus oral tablets, day 0, VOR IV+VOR oral treated patients",251 ± 46 ng·h/mL
same,"Change in 5-item MADRS score, Mean",[2]; [4],−5.05
same,"Change in MADRS total score, Mean",[2]; [4],−6.9
same,"Change in 5-item MADRS score, Mean",[2]; [5],−6.96
same,"Change in MADRS total score, Mean",[2]; [5],−12.1
same,"Change in 5-item MADRS score, Mean",[2]; [6],−8.30
same,"Change in MADRS total score, Mean",[2]; [6],−13.7
same,"Change in 5-item MADRS score, Mean","[2]; VOR IV (17 mg day 0) + VOR oral (10 mg/day), Day 14, N 27",-9.37
same,"Change in 5-item MADRS score, Difference",[2]; Day 1,−1.13
same,"Change in MADRS total score, Difference",[2]; Day 1,−1.4
same,"Change in 5-item MADRS score, Difference",[2]; Day 3,−0.96
same,"Change in MADRS total score, Difference",[2]; Day 3,−1.7
same,"Change in 5-item MADRS score, Difference",[2]; Day 7,−1.27
same,"Change in MADRS total score, Difference",[2]; Day 7,−0.3
same,"Change in 5-item MADRS score, Difference",[2]; Day 14,−0.16
same,% responders (CGI-I ≤ 2),"[2]; VOR IV + VOR oral, Day 1",18.5%
same,% responders (≥50% reduction on MADRS Scale),"[2]; VOR IV + VOR oral, Day 1",3.7%
same,% responders (CGI-I ≤ 2),"[2]; VOR IV + VOR oral, Day 3",50.0%
same,% responders (≥50% reduction on MADRS Scale),"[2]; VOR IV + VOR oral, Day 3",29.6%
same,% responders (CGI-I ≤ 2),"[2]; VOR IV + VOR oral, Day 7",53.8%
same,% responders (≥50% reduction on MADRS Scale),"[2]; VOR IV + VOR oral, Day 7",40.7%
same,% responders (CGI-I ≤ 2),"[2]; VOR IV + VOR oral, Day 14",73.1%
same,% responders (≥50% reduction on MADRS Scale),"[2]; VOR IV + VOR oral, Day 14",48.1%
Cc1ccc(Sc2ccccc2N2CCNCC2)c(C)c1 [PBO IV + VOR oral],concentration at 2 h,"[1]; 10 mg/day, PBO IV + VOR oral",0.56 ± 1.18 ng/mL
same,concentration at 8 h,"[1]; 10 mg/day, PBO IV + VOR oral",2.8 ± 1.8 ng/mL
same,concentration at 24 h,"[1]; 10 mg/day, PBO IV + VOR oral",2.6 ± 1.3 ng/mL
same,concentration at 14 day,"[1]; 10 mg/day, PBO IV + VOR oral",9.9 ± 5.3 ng/mL
same,AUC(0-t),"[1]; oral, 10 mg/day, day 0, PBO IV+VOR oral treated patients",47 ± 20 ng·h/mL
same,AUC(0-t),"[1]; oral, 10 mg/day, day 14, PBO IV+VOR oral treated patients",230 ± 85 ng·h/mL
same,"Change in 5-item MADRS score, Mean",[2]; [7],−3.92
same,"Change in MADRS total score, Mean",[2]; [7],−5.5
same,"Change in 5-item MADRS score, Mean",[2]; [8],−6.00
same,"Change in MADRS total score, Mean",[2]; [8],−10.3
same,"Change in 5-item MADRS score, Mean",[2]; [9],−7.03
same,"Change in MADRS total score, Mean",[2]; [9],−13.4
same,"Change in 5-item MADRS score, Mean","[2]; PBO IV + VOR oral (10 mg/day), Day 14, N 28",-9.21
same,% responders (CGI-I ≤ 2),"[2]; PBO IV + VOR oral, Day 1",7.1%
same,% responders (≥50% reduction on MADRS Scale),"[2]; PBO IV + VOR oral, Day 1",0%
same,% responders (CGI-I ≤ 2),"[2]; PBO IV + VOR oral, Day 3",39.3%
same,% responders (≥50% reduction on MADRS Scale),"[2]; PBO IV + VOR oral, Day 3",14.3%
same,% responders (CGI-I ≤ 2),"[2]; PBO IV + VOR oral, Day 7",42.9%
same,% responders (≥50% reduction on MADRS Scale),"[2]; PBO IV + VOR oral, Day 7",28.6%
same,% responders (CGI-I ≤ 2),"[2]; PBO IV + VOR oral, Day 14",67.9%
same,% responders (≥50% reduction on MADRS Scale),"[2]; PBO IV + VOR oral, Day 14",50.0%

# Reference: patent publication US10258617B2, “Dosing regimens for fast onset of antidepressant effect” (H. Lundbeck A/S, priority 2016, dated 2019)
